Data from ChEMBL document CHEMBL1158147, “Ultraviolet-mediated cytotoxic activity of phenylheptatriyne from Bidens pilosa L” (J Nat Prod, 1979).
The source made the active and inactive calls.

Tests used:
Saccharomyces cerevisiae [1] = assay: Phototoxicity against Saccharomyces cerevisiae at 2.5 ug/disk after UV irradiation for 180 mins; assay type: functional, organism-based
Bacillus subtilis [2] = assay: Phototoxicity against Bacillus subtilis at 5 ug/disk in presence of long wave UV light; assay type: functional, organism-based
Bacillus subtilis [3] = assay: Phototoxicity against Bacillus subtilis at 5 ug/disk in dark; assay type: functional, organism-based
Kocuria rosea [4] = assay: Phototoxicity against Micrococcus roseus UBC 289 at 5 ug/disk in presence of long wave UV light; assay type: functional, organism-based
Kocuria rosea [5] = assay: Phototoxicity against Micrococcus roseus UBC 289 at 5 ug/disk in presence of cool-white fluorescent light; assay type: functional, organism-based
Kocuria rosea [6] = assay: Phototoxicity against Micrococcus roseus UBC 289 at 5 ug/disk in dark; assay type: functional, organism-based
[7] = tested on: Staphylococcus epidermidis; assay: Phototoxicity against Staphylococcus albus at 5 ug/disk in presence of long wave UV light; assay type: functional, organism-based
[8] = tested on: Staphylococcus epidermidis; assay: Phototoxicity against Staphylococcus albus at 5 ug/disk in presence of cool-white fluorescent light; assay type: functional, organism-based
[9] = tested on: Staphylococcus epidermidis; assay: Phototoxicity against Staphylococcus albus at 5 ug/disk in dark; assay type: functional, organism-based
Enterococcus faecalis [10] = assay: Phototoxicity against Streptococcus faecalis at 5 ug/disk in presence of long wave UV light; assay type: functional, organism-based
Enterococcus faecalis [11] = assay: Phototoxicity against Streptococcus faecalis at 5 ug/disk in presence of cool-white fluorescent light; assay type: functional, organism-based
Escherichia coli [12] = assay: Phototoxicity against Escherichia coli at 5 ug/disk in presence of long wave UV light; assay type: functional, organism-based
Escherichia coli [13] = assay: Phototoxicity against Escherichia coli at 5 ug/disk in presence of cool-white fluorescent light; assay type: functional, organism-based
Proteus mirabilis [14] = assay: Phototoxicity against Proteus mirabilis UBC 5 at 5 ug/disk in presence of long wave UV light; assay type: functional, organism-based
Proteus mirabilis [15] = assay: Phototoxicity against Proteus mirabilis UBC 5 at 5 ug/disk in presence of cool-white fluorescent light; assay type: functional, organism-based
Proteus mirabilis [16] = assay: Phototoxicity against Proteus mirabilis UBC 5 at 5 ug/disk in dark; assay type: functional, organism-based
Pseudomonas fluorescens [17] = assay: Phototoxicity against Pseudomonas fluorescens at 5 ug/disk in presence of long wave UV light; assay type: functional, organism-based
Pseudomonas fluorescens [18] = assay: Phototoxicity against Pseudomonas fluorescens at 5 ug/disk in presence of cool-white fluorescent light; assay type: functional, organism-based
Pseudomonas fluorescens [19] = assay: Phototoxicity against Pseudomonas fluorescens at 5 ug/disk in dark; assay type: functional, organism-based
Candida albicans [20] = assay: Phototoxicity against Candida albicans at 5 ug/disk in presence of long wave UV light; assay type: functional, organism-based
Candida albicans [21] = assay: Phototoxicity against Candida albicans at 5 ug/disk in presence of cool-white fluorescent light; assay type: functional, organism-based
Saccharomyces cerevisiae [22] = assay: Phototoxicity against Saccharomyces cerevisiae at 2.5 ug/disk after UV irradiation for 30 mins; assay type: functional, organism-based
Rhodotorula mucilaginosa [23] = assay: Phototoxicity against Rhodotorula rubra Y96 at 5 ug/disk in presence of long wave UV light; assay type: functional, organism-based
Candida albicans [24] = assay: Phototoxicity against Candida albicans at 2.5 ug/disk after UV irradiation for 180 mins; assay type: functional, organism-based
Rhodotorula mucilaginosa [25] = assay: Phototoxicity against Rhodotorula rubra Y96 at 5 ug/disk in dark; assay type: functional, organism-based
Saccharomyces cerevisiae [26] = assay: Phototoxicity against Saccharomyces cerevisiae at 5 ug/disk in presence of cool-white fluorescent light; assay type: functional, organism-based
Sporobolomyces = assay: Phototoxicity against Sporobolomyces sp. Y138 at 5 ug/disk in presence of cool-white fluorescent light; assay type: functional, organism-based
Torula [27] = assay: Phototoxicity against Torula sp. at 5 ug/disk in presence of long wave UV light; assay type: functional, organism-based
Torula [28] = assay: Phototoxicity against Torula sp. at 5 ug/disk in presence of cool-white fluorescent light; assay type: functional, organism-based
Fusarium sp. = assay: Phototoxicity against Fusarium sp. at 5 ug/disk in presence of cool-white fluorescent light; assay type: functional, organism-based
Paraphyton cookei [29] = assay: Phototoxicity against Microsporum cookei at 5 ug/disk in presence of long wave UV light; assay type: functional, organism-based
Paraphyton cookei [30] = assay: Phototoxicity against Microsporum cookei at 5 ug/disk in presence of cool-white fluorescent light; assay type: functional, organism-based
Paraphyton cookei [31] = assay: Phototoxicity against Microsporum cookei at 5 ug/disk in dark; assay type: functional, organism-based
Nannizzia gypsea [32] = assay: Phototoxicity against Microsporum gypseum at 5 ug/disk in presence of cool-white fluorescent light; assay type: functional, organism-based
Nannizzia gypsea [33] = assay: Phototoxicity against Microsporum gypseum at 5 ug/disk in dark; assay type: functional, organism-based
[34] = tested on: Trichophyton mentagrophytes; assay: Phototoxicity against Trichophyton mentagrophytes at 5 ug/disk in presence of cool-white fluorescent light; assay type: functional, organism-based
[35] = tested on: Trichophyton mentagrophytes; assay: Phototoxicity against Trichophyton mentagrophytes at 5 ug/disk in dark; assay type: functional, organism-based
Saccharomyces cerevisiae [36] = assay: Effect on Saccharomyces cerevisiae assessed as viable cell count at 10 ug/ml in petroleum ether after 2.67 Joules/cm'2 UV irradiation for 30 mins; assay type: functional
Saccharomyces cerevisiae [37] = assay: Effect on Saccharomyces cerevisiae assessed as viable cell count at 10 ug/ml in petroleum ether after 16 Joules/cm'2 UV irradiation for 180 mins; assay type: functional
Saccharomyces cerevisiae [38] = assay: Effect on Saccharomyces cerevisiae assessed as viable cell count at 10 ug/ml in petroleum ether in dark after 15 mins; assay type: functional
Saccharomyces cerevisiae [39] = assay: Effect on Saccharomyces cerevisiae assessed as viable cell count at 10 ug/ml in petroleum ether in dark after 180 mins; assay type: functional
[40] = Effect on human skin fibroblast cells assessed as viable cell count at 10 ug/ml in petroleum ether after 1.78 Joules/cm UV irradiation for 20 mins by trypan blue exclusion method; assay type: ADME, cell-based; settings: read-out: Activity
[41] = Effect on human skin fibroblast cells assessed as viable cell count at 10 ug/ml in petroleum ether after 5.33 Joules/cm UV irradiation for 60 mins by trypan blue exclusion method; assay type: ADME, cell-based; settings: read-out: Activity
[42] = Effect on human skin fibroblast cells assessed as viable cell count at 10 ug/ml in petroleum ether after 8.00 Joules/cm UV irradiation for 90 mins by trypan blue exclusion method; assay type: ADME, cell-based; settings: read-out: Activity
[43] = Effect on human skin fibroblast cells assessed as viable cell count at 10 ug/ml in petroleum ether after 10.67 Joules/cm UV irradiation for 120 mins by trypan blue exclusion method; assay type: ADME, cell-based; settings: read-out: Activity
Candida albicans [44] = assay: Phototoxicity against Candida albicans at 2.5 ug/disk after UV irradiation for 15 mins; assay type: functional; settings: light or radiation study, 0.25 h, read-out: IZ
Saccharomyces cerevisiae [45] = assay: Phototoxicity against Saccharomyces cerevisiae at 2.5 ug/disk after UV irradiation for 15 mins; assay type: functional; settings: light or radiation study, 0.25 h, read-out: IZ
DNA [46] = assay: Photochemical activity against denatured calf thymus DNA at 10 ug by hyperchromicity test; assay type: nucleic-acid assay; settings: Bos taurus
DNA [47] = assay: Photochemical activity against denatured calf thymus DNA 10 ug after UV irradiation with 2.67 Joules/cm'2 for 30 mins at by hyperchromicity test; assay type: nucleic-acid assay; settings: Bos taurus
DNA [48] = assay: Photochemical activity against denatured calf thymus DNA at 10 ug after UV irradiation with 5.33 Joules/cm'2 for 60 mins by hyperchromicity test; assay type: nucleic-acid assay; settings: Bos taurus
DNA [49] = assay: Photochemical activity against denatured calf thymus DNA at 10 ug after UV irradiation with 16.00 Joules/cm'2 for 180 mins by hyperchromicity test; assay type: nucleic-acid assay; settings: Bos taurus
DNA [50] = assay: Photochemical activity against denatured calf thymus DNA at 10 ug in dark after 30 mins by hyperchromicity test; assay type: nucleic-acid assay; settings: Bos taurus
DNA [51] = assay: Photochemical activity against denatured calf thymus DNA at 10 ug in dark after 60 mins by hyperchromicity test; assay type: nucleic-acid assay; settings: Bos taurus; note: unit not given here
DNA [52] = assay: Photochemical activity against denatured calf thymus DNA at in dark after 120 mins by hyperchromicity test; assay type: nucleic-acid assay; settings: Bos taurus; note: unit not given here
Candida albicans [53] = assay: Phototoxicity against Candida albicans at 2.5 ug/disk after UV irradiation for 30 mins; assay type: functional, organism-based

CC#CC#CC#Cc1ccccc1 [PHENYLHEPTATRIYNE]
95%: viability at 20 min, 10 ug/ml [40]
active: Activity (Bacillus subtilis [2]) | Activity (Kocuria rosea [4]) | Activity (Kocuria rosea [5]) | Activity [7] | Activity [8] | Activity (Enterococcus faecalis [10]) | Activity (Enterococcus faecalis [11]) | Activity (Escherichia coli [12]) | Activity (Proteus mirabilis [14]) | Activity (Candida albicans [20]) | Activity (Candida albicans [21]) | Activity (Rhodotorula mucilaginosa [23]) | Activity (Saccharomyces cerevisiae [26]) | Activity (Sporobolomyces) | Activity (Torula [27]) | Activity (Fusarium sp.) | Activity (Paraphyton cookei [29]) | Activity (Paraphyton cookei [30]) | Activity (Nannizzia gypsea [32]) | Activity [34]
10 mm: zone of inhibition at 2.5 µg/disc (Saccharomyces cerevisiae [45])
24.2: Activity (Saccharomyces cerevisiae [38])
inactive: Activity (Saccharomyces cerevisiae [1]) | Activity (Bacillus subtilis [3]) | Activity (Kocuria rosea [6]) | Activity [9] | Activity (Escherichia coli [13]) | Activity (Proteus mirabilis [15]) | Activity (Proteus mirabilis [16]) | Activity (Pseudomonas fluorescens [17]) | Activity (Pseudomonas fluorescens [18]) | Activity (Pseudomonas fluorescens [19]) | Activity (Saccharomyces cerevisiae [22]) | Activity (Candida albicans [24]) | Activity (Rhodotorula mucilaginosa [25]) | Activity (Torula [28]) | Activity (Paraphyton cookei [31]) | Activity (Nannizzia gypsea [33]) | Activity [35] | Activity (Candida albicans [53])
0.18: Activity (DNA [46]) | Activity (DNA [51])
11 mm: zone of inhibition at 2.5 µg/disc (Candida albicans [44])
0.02: Activity (Saccharomyces cerevisiae [36]) | Activity (DNA [48])
0: Activity (Saccharomyces cerevisiae [37]) | Activity (DNA [49])
0.17: Activity (DNA [50])
0%: viability at 1 h, 10 ug/ml [41] | viability at 1.5 h, 10 ug/ml [42] | viability at 2 h, 10 ug/ml [43]
0.03: Activity (DNA [47])
0.19: Activity (DNA [52])
53.5: Activity (Saccharomyces cerevisiae [39])
